Assay results reported in US6472348B1, “Pyridone derivatives and herbicides” (Kumiai Chemical Industry Co., Ltd., priority 1996, dated 2002).

Key:
Assay type in all cases: in vivo
pale smartweed (Po) [1] = test: Test Example 5: crop plant selectivity by upland field soil treatment (wheat), herbicidal effects; design: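 grade of growth control; 5 = at least 90%; 4 = 70 to 90%; 3 = 50 to 70%; 2 = 30 to 50%; 1 = 10 to 30%; 0 = under 10%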; details: dose 6.3 g ai/10a, 21st day after application
In short: (§1)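 A greenhouse pot test in which wheat and weeds share sand-filled pots; after the soil application, damage is graded against set standards three weeks later.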

China jute (Ab) [2] = test: as above; design: scale not given here; details: dose 6.3 g ai/10a, 21st day after application
In short: as §1

slender amaranth (Am) [3] = test: as above; design: scale not given here; details: dose 6.3 g ai/10a, 21st day after application
In short: as §1

green foxtail (Se) [4] = test: as above; design: scale not given here; details: dose 6.3 g ai/10a, 21st day after application
In short: as §1

[5] = system: common lambsquarters (Ch); test: as above; design: scale not given here; details: dose 6.3 g ai/10a, 21st day after application
In short: as §1

barnyardgrass (Ec) [6] = test: Test Example 1: herbicidal effects by paddy field soil treatment; details: 100 g of the active ingredient per 10 ares, 21st day after the application, index 0-5 of Table 47;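 also: grade of growth control; 5 = at least 90%; 4 = 70 to 90%; 3 = 50 to 70%; 2 = 30 to 50%; 1 = 10 to 30%; 0 = under 10%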
In short: (§2)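 Greenhouse pot test in flooded paddy soil, dosed at 100 g a.i. per 10 ares; effect scored on day 21.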

bulrush (Sc) = test: as above; details: 100 g of the active ingredient per 10 ares, 21st day after the application, index 0-5 of Table 47;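 also: grade of growth control; 5 = at least 90%; 4 = 70 to 90%; 3 = 50 to 70%; 2 = 30 to 50%; 1 = 10 to 30%; 0 = under 10%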
In short: as §2

monochoria (Mo) = test: as above; details: 100 g of the active ingredient per 10 ares, 21st day after the application, index 0-5 of Table 47;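 also: grade of growth control; 5 = at least 90%; 4 = 70 to 90%; 3 = 50 to 70%; 2 = 30 to 50%; 1 = 10 to 30%; 0 = under 10%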
In short: as §2

soybean (Gl) = test: Test Example 6: crop plant selectivity by upland field soil treatment (soybean), phytotoxicity; design: scale not given here; details: dose 6.3 g ai/10a, 21st day after application
Experimental: (§3) (Test on Crop Plant Selectivity by Upland Field Soil Treatment)
(§4) In a plastic pot (surface area: 600 cm^2) filled with sand, soybean (Gl), Diaitaria ciliaris (Di), green foxtail (Se), Johnsongrass (So), pale smartweed (Po), slender amaranth (Am), common lambsquarters (Ch) and China jute (Ab) were sown and covered with soil. […] The plants were then cultured in a green house, and the evaluation of the herbicidal effects and phytotoxicity was conducted on the 21st day after the application in accordance with the standards as identified in Table 47. Symbol—represents “not tested”.

corn (Ze) = test: Test Example 7: crop plant selectivity by upland field soil treatment (corn), phytotoxicity; design: scale not given here; details: dose 6.3 g ai/10a, 21st day after application
Experimental: as §3
(§5) In a plastic pot (surface area: 600 cm^2) filled with sand, corn (Ze), green foxtail (Se), pale smartweed (Po), slender amaranth (Am), common lambsquarters (Ch) and China jute (Ab) were sown and covered with soil. […] The plants were then cultured in a green house, and the evaluation of the herbicidal effects and phytotoxicity was conducted on the 21st day after the application in accordance with the standards as identified in Table 47.

pale smartweed (Po) [7] = test: Test Example 7: crop plant selectivity by upland field soil treatment (corn), herbicidal effects; design: scale not given here; details: dose 6.3 g ai/10a, 21st day after application
Experimental: as §3, §5

China jute (Ab) [8] = test: as above; design: scale not given here; details: dose 6.3 g ai/10a, 21st day after application
Experimental: as §3, §5

slender amaranth (Am) [9] = test: as above; design: scale not given here; details: dose 6.3 g ai/10a, 21st day after application
Experimental: as §3, §5

green foxtail (Se) [10] = test: as above; design: scale not given here; details: dose 6.3 g ai/10a, 21st day after application
Experimental: as §3, §5

[11] = system: common lambsquarters (Ch); test: as above; design: scale not given here; details: dose 6.3 g ai/10a, 21st day after application
Experimental: as §3, §5

wheat (Tr) = test: Test Example 5: crop plant selectivity by upland field soil treatment (wheat), phytotoxicity; design: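 grade of crop injury; 5 = at least 90%; 4 = 70 to 90%; 3 = 50 to 70%; 2 = 30 to 50%; 1 = 10 to 30%; 0 = under 10%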; details: dose 6.3 g ai/10a, 21st day after application
In short: as §1

pale smartweed (Po) [12] = test: Test Example 3: herbicidal effects by upland field foliage treatment; design: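 grade of growth control; 5 = at least 90%; 4 = 70 to 90%; 3 = 50 to 70%; 2 = 30 to 50%; 1 = 10 to 30%; 0 = under 10%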
In short: (§6)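 Two-week-old greenhouse seedlings, raised in sand-filled pots (120 cm^2) with seed covered by soil, receive a foliar application. Effects are then evaluated by standard grades 14 days later, plants remaining in the greenhouse meanwhile.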

barnyardgrass (Ec) [13] = test: as above; design: scale not given here
In short: as §6

rice flatsedge (Ci) [14] = test: as above; design: scale not given here
In short: as §6

slender amaranth (Am) [15] = test: as above; design: scale not given here
In short: as §6

Diaitaria ciliaris (Di) = test: as above; design: scale not given here
In short: as §6

[16] = system: common lambsquarters (Ch); test: as above; design: scale not given here
In short: as §6

pale smartweed (Po) [17] = test: Test Example 6: crop plant selectivity by upland field soil treatment (soybean), herbicidal effects; design: scale not given here; details: dose 6.3 g ai/10a, 21st day after application
Experimental: as §3, §4

China jute (Ab) [18] = test: as above; design: scale not given here; details: dose 6.3 g ai/10a, 21st day after application
Experimental: as §3, §4

slender amaranth (Am) [19] = test: as above; design: scale not given here; details: dose 6.3 g ai/10a, 21st day after application
Experimental: as §3, §4

green foxtail (Se) [20] = test: as above; design: scale not given here; details: dose 6.3 g ai/10a, 21st day after application
Experimental: as §3, §4

[21] = system: common lambsquarters (Ch); test: as above; design: scale not given here; details: dose 6.3 g ai/10a, 21st day after application
Experimental: as §3, §4

cotton (Go) = test: Test Example 4: crop plant selectivity by upland field soil treatment (cotton), phytotoxicity; design: scale not given here; details: dose 6.3 g ai/10 a, evaluated 21st day after application
Experimental: as §3
(§7) In a plastic pot (surface area: 600 cm^2) filled with sand, cotton (Go), Diaitaria ciliaris (Di), green foxtail (Se), pale smartweed (Po), slender amaranth (Am), common lambsquarters (Ch) and China jute (Ab) were sown and covered with soil. […] The plants were then cultured in a green house, and the evaluation of the herbicidal effects and phytotoxicity was conducted on the 21st day after the application in accordance with the standards as identified in Table 47. Symbol—represents “not tested”.

pale smartweed (Po) [22] = test: Test Example 4: crop plant selectivity by upland field soil treatment (cotton), herbicidal effects; design: scale not given here; details: dose 6.3 g ai/10 a, evaluated 21st day after application
Experimental: as §3, §7

China jute (Ab) [23] = test: as above; design: scale not given here; details: dose 6.3 g ai/10 a, evaluated 21st day after application
Experimental: as §3, §7

slender amaranth (Am) [24] = test: as above; design: scale not given here; details: dose 6.3 g ai/10 a, evaluated 21st day after application
Experimental: as §3, §7

green foxtail (Se) [25] = test: as above; design: scale not given here; details: dose 6.3 g ai/10 a, evaluated 21st day after application
Experimental: as §3, §7

[26] = system: common lambsquarters (Ch); test: as above; design: scale not given here; details: dose 6.3 g ai/10 a, evaluated 21st day after application
Experimental: as §3, §7

pale smartweed (Po) [27] = test: Test Example 2: herbicidal effects by upland field soil treatment; details: 100 g of the active ingredient per 10 ares, evaluated on the 21st day after application;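 also: grade of growth control; 5 = at least 90%; 4 = 70 to 90%; 3 = 50 to 70%; 2 = 30 to 50%; 1 = 10 to 30%; 0 = under 10%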
Text: (§8) (Test on Herbicidal Effects by Upland Field Soil Treatment)

Digitaria ciliaris (Di) = test: as above; details: 100 g of the active ingredient per 10 ares, evaluated on the 21st day after application
Text: as §8

barnyardgrass (Ec) [28] = test: as above; details: 100 g of the active ingredient per 10 ares, evaluated on the 21st day after application
Text: as §8

rice flatsedge (Ci) [29] = test: as above; details: 100 g of the active ingredient per 10 ares, evaluated on the 21st day after application
Text: as §8

slender amaranth (Am) [30] = test: as above; details: 100 g of the active ingredient per 10 ares, evaluated on the 21st day after application
Text: as §8

[31] = system: common lambsquarters (Ch); test: as above; details: 100 g of the active ingredient per 10 ares, evaluated on the 21st day after application
Text: as §8

[32] = 100 g of the active ingredient per 10 ares, evaluated on the 14th day after treatment
[33] = 100 g active ingredient per 10 ares, evaluated 14th day after treatment

Cn1c(C(F)(F)F)ccc(-c2cc(OCC(F)F)c(Cl)cc2F)c1=O [1-173]
Herbicidal effects Po (pale smartweed (Po) [1]): 5
Herbicidal effects Ab (China jute (Ab) [2]): 5
Herbicidal effects Am (slender amaranth (Am) [3]): 5
Herbicidal effects Se (green foxtail (Se) [4]): 5
Herbicidal effects Ch [5]: 5
Herbicidal effects Ec (barnyardgrass (Ec) [6]): 5
Herbicidal effects Sc (bulrush (Sc)): 5
Herbicidal effects Mo (monochoria (Mo)): 5
Phytotoxicity Gl (soybean (Gl)): 1
Phytotoxicity Ze (corn (Ze)): 1
Herbicidal effects Po (pale smartweed (Po) [7]): 5
Herbicidal effects Ab (China jute (Ab) [8]): 5
Herbicidal effects Am (slender amaranth (Am) [9]): 5
Herbicidal effects Se (green foxtail (Se) [10]): 5
Herbicidal effects Ch [11]: 5
Phytotoxicity Tr (wheat (Tr)): 1
Herbicidal effects Po (pale smartweed (Po) [12]; [32]): 5
Herbicidal effects Ec (barnyardgrass (Ec) [13]; [32]): 5
Herbicidal effects Ci (rice flatsedge (Ci) [14]; [32]): 5
Herbicidal effects Am (slender amaranth (Am) [15]; [32]): 5
Herbicidal effects Di (Diaitaria ciliaris (Di); [32]): 5
Herbicidal effects Ch [16, 32]: 5
Herbicidal effects Po (pale smartweed (Po) [17]): 5
Herbicidal effects Ab (China jute (Ab) [18]): 5
Herbicidal effects Am (slender amaranth (Am) [19]): 5
Herbicidal effects Se (green foxtail (Se) [20]): 5
Herbicidal effects Ch [21]: 5
Phytotoxicity Go (cotton (Go)): 1
Herbicidal effects Po (pale smartweed (Po) [22]): 5
Herbicidal effects Ab (China jute (Ab) [23]): 5
Herbicidal effects Am (slender amaranth (Am) [24]): 5
Herbicidal effects Se (green foxtail (Se) [25]): 5
Herbicidal effects Ch [26]: 5
Herbicidal effects Po (pale smartweed (Po) [27]): 5
Herbicidal effects Di (Digitaria ciliaris (Di)): 5
Herbicidal effects Ec (barnyardgrass (Ec) [28]): 5
Herbicidal effects Ci (rice flatsedge (Ci) [29]): 5
Herbicidal effects Am (slender amaranth (Am) [30]): 5
Herbicidal effects Ch [31]: 5

COc1cc(Cl)cc(F)c1-c1ccc(C(F)(F)F)n(C)c1=O [1′-1]
Herbicidal effects Po (pale smartweed (Po) [1]): 5
Herbicidal effects Ab (China jute (Ab) [2]): 5
Herbicidal effects Am (slender amaranth (Am) [3]): 5
Herbicidal effects Se (green foxtail (Se) [4]): 5
Herbicidal effects Ch [5]: 5
Herbicidal effects Ec (barnyardgrass (Ec) [6]): 5
Herbicidal effects Sc (bulrush (Sc)): 5
Herbicidal effects Mo (monochoria (Mo)): 5
Phytotoxicity Gl (soybean (Gl)): 1
Phytotoxicity Ze (corn (Ze)): 1
Herbicidal effects Po (pale smartweed (Po) [7]): 5
Herbicidal effects Ab (China jute (Ab) [8]): 5
Herbicidal effects Am (slender amaranth (Am) [9]): 5
Herbicidal effects Se (green foxtail (Se) [10]): 5
Herbicidal effects Ch [11]: 5
Phytotoxicity Tr (wheat (Tr)): 1
Herbicidal effects Po (pale smartweed (Po) [12]; [33]): 5
Herbicidal effects Ec (barnyardgrass (Ec) [13]; [33]): 5
Herbicidal effects Ci (rice flatsedge (Ci) [14]; [33]): 5
Herbicidal effects Am (slender amaranth (Am) [15]; [33]): 5
Herbicidal effects Di (Diaitaria ciliaris (Di); [33]): 5
Herbicidal effects Ch [16, 33]: 5
Herbicidal effects Po (pale smartweed (Po) [17]): 5
Herbicidal effects Ab (China jute (Ab) [18]): 5
Herbicidal effects Am (slender amaranth (Am) [19]): 5
Herbicidal effects Se (green foxtail (Se) [20]): 5
Herbicidal effects Ch [21]: 5
Phytotoxicity Go (cotton (Go)): 0
Herbicidal effects Po (pale smartweed (Po) [22]): 5
Herbicidal effects Ab (China jute (Ab) [23]): 5
Herbicidal effects Am (slender amaranth (Am) [24]): 5
Herbicidal effects Se (green foxtail (Se) [25]): 5
Herbicidal effects Ch [26]: 5
Herbicidal effects Po (pale smartweed (Po) [27]): 5
Herbicidal effects Di (Digitaria ciliaris (Di)): 5
Herbicidal effects Ec (barnyardgrass (Ec) [28]): 5
Herbicidal effects Ci (rice flatsedge (Ci) [29]): 5
Herbicidal effects Am (slender amaranth (Am) [30]): 5
Herbicidal effects Ch [31]: 5
